Columns and labels:
[1] = Pharmacokinetic parameters (plasma AUC) after single subcutaneous administration in HCT116 xenograft mice; format: in vivo; conditions: I-216 at 10 mg/kg, female Ncr nude mice bearing HCT116 tumor xenografts
[2] = molecular target: T1, NAE (Homo sapiens, UniProt Q8TBC4); test: In vivo Tumor Pharmacodynamic Model (neddylated cullins in HCT116 tumor xenografts); parameters: species or system female Ncr nude mice; conditions: expected from the pharmacodynamic and pharmacokinetic figures (FIGS. 1-3)
T1 construct: endogenous in cells; host or cells: HCT116 (ATCC CCL-247) subcutaneous tumour xenografts in female Ncr nude mice
T1 sequence (Q8TBC4 1-463): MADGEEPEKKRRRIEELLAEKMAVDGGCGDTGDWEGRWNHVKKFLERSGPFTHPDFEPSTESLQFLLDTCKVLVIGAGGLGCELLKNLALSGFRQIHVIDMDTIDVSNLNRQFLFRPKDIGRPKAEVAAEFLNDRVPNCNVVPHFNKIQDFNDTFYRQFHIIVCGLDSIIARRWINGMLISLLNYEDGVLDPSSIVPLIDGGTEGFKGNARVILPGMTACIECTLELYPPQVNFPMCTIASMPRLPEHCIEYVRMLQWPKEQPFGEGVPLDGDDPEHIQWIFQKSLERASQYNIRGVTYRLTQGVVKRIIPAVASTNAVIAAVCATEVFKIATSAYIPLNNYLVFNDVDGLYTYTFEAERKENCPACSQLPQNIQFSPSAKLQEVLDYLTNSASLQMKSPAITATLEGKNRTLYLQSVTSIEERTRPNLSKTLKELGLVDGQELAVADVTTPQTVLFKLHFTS
T1 sequence (Q13564 1-534 partner): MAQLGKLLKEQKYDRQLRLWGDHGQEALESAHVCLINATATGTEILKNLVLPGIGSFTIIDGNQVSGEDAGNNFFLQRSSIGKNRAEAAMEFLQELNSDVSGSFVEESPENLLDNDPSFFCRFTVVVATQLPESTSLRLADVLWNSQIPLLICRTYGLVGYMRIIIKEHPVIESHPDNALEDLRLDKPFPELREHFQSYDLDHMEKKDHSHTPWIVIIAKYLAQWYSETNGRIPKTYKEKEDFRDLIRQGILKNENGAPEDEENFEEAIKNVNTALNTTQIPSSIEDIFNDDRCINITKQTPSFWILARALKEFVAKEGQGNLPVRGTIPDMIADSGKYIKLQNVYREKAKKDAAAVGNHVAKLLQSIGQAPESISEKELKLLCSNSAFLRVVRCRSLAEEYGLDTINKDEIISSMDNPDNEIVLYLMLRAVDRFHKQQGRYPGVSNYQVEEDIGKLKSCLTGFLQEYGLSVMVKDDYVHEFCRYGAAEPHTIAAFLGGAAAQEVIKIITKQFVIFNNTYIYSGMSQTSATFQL
Method: HCT116 tumor cells (2×10^6) (ATCC #CCL-247) in 100 μL phosphate buffered saline were aseptically injected into the subcutaneous space in the right dorsal flank of female Ncr nude mice (age 5-8 weeks, Charles River) using a 26-gauge needle. Beginning on day 7 after inoculation, tumors were measured twice weekly using a vernier caliper. Tumor volumes were calculated using standard procedures (0.5×(length×width^2)). When the tumors reached a volume of approximately 3-700 mm^3 mice were randomized into groups and injected subcutaneously with compound inhibitor (200 μL) at various doses. Tumors were harvested and crushed in Covaris bags and then transferred to glass tubes on dry ice for sonication in the Covaris E200. […] Supernatants were transferred to new tubes and protein concentrations were determined using the Pierce bicinchoninic acid (BCA) reagents and protein standards. […]
For quantitative analysis of neddylated cullins the procedure was as follows: 20 μg of tumor lysate with lithium dodecyl sulfate (LDS) loading buffer and sample reducing agent (Invitrogen NP0007 and NP0004) was loaded onto 4-12% bis-tris gels, […], 10 well gels (Invitrogen NP0315Box). […] Quantitation of signals on Western blots was performed with the Odyssey software.

potency as inhibitor of NAE relative to I-115 [2]: 2- to 3 fold
Structure (SMILES): CO[C@H]1Cc2cc(Cl)ccc2[C@H]1Nc1cc(O[C@@H]2C[C@@H](COS(N)(=O)=O)[C@@H](O)C2)ncn1 [I-216, {(1S,2S,4R)-4-[(6-{[(1R,2S)-5-chloro-2-methoxy-2,3-dihydro-1H-inden-1-yl]amino}pyrimidin-4-yl)oxy]-2-hydroxycyclopentyl}methyl sulfamate]
plasma AUC compared with I-115 at 30 mg/kg [1]: comparable to that observed for I-115 administered at 30 mg/kg
plasma AUC compared with I-216 at 30 mg/kg [1]: approximately half the AUC observed for I-216 administered at 30 mg/kg

From US8809356B2, “Inhibitors of NEDD8-activating enzyme” (Millennium Pharmaceuticals, Inc., priority 2011, dated 2014)
